Measured values published in ChEMBL document CHEMBL1138413, “Development of SPECT imaging agents for the norepinephrine transporters: [123I]INER” (Bioorg Med Chem Lett, 2007).

Experiments:
[1] = biological target: Sodium-dependent dopamine transporter (Rattus norvegicus, UniProt P23977); assay: Displacement of [3H]GBR from DAT in rat brain membranes; type: cell membranes
[2] = biological target: Norepinephrine transporter (Rattus norvegicus, UniProt Q9WTR4); assay: Displacement of [3H]nisoxetine from NET in rat brain membranes; type: cell membranes
[3] = biological target: Sodium-dependent serotonin transporter (Rattus norvegicus, UniProt P31652); assay: Displacement of [3H]paroxetine from SERT in brain membranes; type: cell membranes, Membrane
[4] = Lipophilicity, log D at pH 7.4; type: physicochemical; conditions: buffer
Brain = assay: Drug uptake in olive baboon brain at 7.89 mCi after 10 mins; type: ADME, tissue-based; conditions: papio anubis, in vivo
[5] = biological target: Sodium-dependent serotonin transporter (Rattus norvegicus) (UniProt P31652); assay: Inhibition of SERT in rat brain membrane at 10 uM; type: cell membranes
Sequence of Sodium-dependent serotonin transporter (Rattus norvegicus) (P31652 whole entry): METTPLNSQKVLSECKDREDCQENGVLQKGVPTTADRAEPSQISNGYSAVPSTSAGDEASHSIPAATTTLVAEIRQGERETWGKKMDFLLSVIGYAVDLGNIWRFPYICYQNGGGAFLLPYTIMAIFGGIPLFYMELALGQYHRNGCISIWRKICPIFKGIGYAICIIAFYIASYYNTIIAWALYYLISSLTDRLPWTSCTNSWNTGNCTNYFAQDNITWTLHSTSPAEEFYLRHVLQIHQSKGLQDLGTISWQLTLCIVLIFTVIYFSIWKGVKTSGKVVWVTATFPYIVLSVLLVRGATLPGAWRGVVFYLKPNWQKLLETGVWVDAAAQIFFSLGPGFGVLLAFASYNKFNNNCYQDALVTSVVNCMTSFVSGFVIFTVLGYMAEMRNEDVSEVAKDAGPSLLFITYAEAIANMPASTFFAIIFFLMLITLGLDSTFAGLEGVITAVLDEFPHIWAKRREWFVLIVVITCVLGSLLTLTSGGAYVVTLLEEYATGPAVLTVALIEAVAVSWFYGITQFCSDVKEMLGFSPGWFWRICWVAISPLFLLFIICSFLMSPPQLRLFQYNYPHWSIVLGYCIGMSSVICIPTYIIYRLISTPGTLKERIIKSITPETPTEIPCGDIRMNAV

Sequence of Sodium-dependent dopamine transporter (P23977 whole entry): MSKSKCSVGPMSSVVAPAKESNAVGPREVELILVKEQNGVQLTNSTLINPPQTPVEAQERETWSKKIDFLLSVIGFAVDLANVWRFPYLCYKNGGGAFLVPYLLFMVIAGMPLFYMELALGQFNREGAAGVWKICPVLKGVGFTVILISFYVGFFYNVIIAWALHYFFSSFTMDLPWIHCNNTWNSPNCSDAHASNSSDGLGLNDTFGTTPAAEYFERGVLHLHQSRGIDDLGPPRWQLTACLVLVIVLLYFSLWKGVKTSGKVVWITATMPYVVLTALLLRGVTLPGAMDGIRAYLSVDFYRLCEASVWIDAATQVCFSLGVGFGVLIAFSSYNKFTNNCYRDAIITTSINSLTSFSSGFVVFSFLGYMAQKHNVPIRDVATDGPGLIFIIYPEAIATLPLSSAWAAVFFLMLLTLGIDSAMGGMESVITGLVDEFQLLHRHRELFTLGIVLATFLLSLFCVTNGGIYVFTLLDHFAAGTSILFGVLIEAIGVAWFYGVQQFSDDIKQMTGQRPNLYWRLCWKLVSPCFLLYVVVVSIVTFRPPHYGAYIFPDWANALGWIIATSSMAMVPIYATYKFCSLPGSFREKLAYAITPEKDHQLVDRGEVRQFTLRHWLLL
Sequence of Norepinephrine transporter (Q9WTR4 whole entry): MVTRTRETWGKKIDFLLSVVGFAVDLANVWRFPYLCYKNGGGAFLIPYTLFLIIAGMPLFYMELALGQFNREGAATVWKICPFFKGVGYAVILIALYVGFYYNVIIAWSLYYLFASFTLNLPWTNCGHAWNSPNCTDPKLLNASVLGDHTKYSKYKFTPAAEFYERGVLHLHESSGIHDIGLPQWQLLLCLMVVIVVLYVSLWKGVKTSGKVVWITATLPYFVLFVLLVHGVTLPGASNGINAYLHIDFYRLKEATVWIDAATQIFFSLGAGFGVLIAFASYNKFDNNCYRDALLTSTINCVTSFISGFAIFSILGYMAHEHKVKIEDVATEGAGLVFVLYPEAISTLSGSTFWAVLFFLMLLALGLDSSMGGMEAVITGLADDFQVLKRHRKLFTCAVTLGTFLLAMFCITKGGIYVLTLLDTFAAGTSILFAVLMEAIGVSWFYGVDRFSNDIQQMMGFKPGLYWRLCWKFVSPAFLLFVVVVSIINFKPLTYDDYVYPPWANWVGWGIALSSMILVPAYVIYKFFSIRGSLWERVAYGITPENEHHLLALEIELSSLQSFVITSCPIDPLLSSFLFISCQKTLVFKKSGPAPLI
Sequence of Sodium-dependent serotonin transporter (P31652 whole entry): as the sequence (P31652 whole entry) above

SMILES	Ki [1] [nM]	Ki [2] [nM]	Ki [3] [nM]	logD [4]	Drug uptake (Brain) [%ID]	inhibition [5] [%]
Ic1ccccc1O[C@@H](c1ccccc1)[C@@H]1CNCCO1	228	0.84	40.4			
[125I]c1ccccc1O[C@@H](c1ccccc1)[C@@H]1CNCCO1				2.6	1	
COc1ccccc1COC(c1cccc(I)c1)C1CNCCO1 (racemic)	716	73.8	351			
Cc1ccccc1OC(c1ccc(I)s1)C1CNCCO1 (racemic)	186	71.9				31
COc1ccccc1OC(c1ccc(I)s1)C1CNCCO1 (racemic)	210	79.6	141			
O=[N+]([O-])c1ccccc1COC(c1cccc(I)c1)C1CNCCO1 (racemic)	14.2	70.4	252			
COc1ccccc1OC(c1cccc(I)c1)C1CNCCO1 (racemic)	> 10000	15.4				12
CCOc1ccccc1OC(c1cccc(I)c1)C1CNCCO1 (racemic)	3140	28.5				44
Ic1ccccc1OC(c1ccccc1)C1CNCCO1 (racemic)	410	2.47				40
FC(F)(F)c1ccccc1OC(c1cccc(I)c1)C1CNCCO1 (racemic)	1870	101	486			
Cc1ccccc1OC(c1cccc(I)c1)C1CNCCO1 (racemic)	740	27.6				24
